Target: T1, TNF-α (recombinant mouse TNF-α) (Mus musculus, UniProt P06804)
T1 construct: recombinant, purchased from Sigma; amine-coupled to CM5 chip
T1 sequence (P06804 80-235): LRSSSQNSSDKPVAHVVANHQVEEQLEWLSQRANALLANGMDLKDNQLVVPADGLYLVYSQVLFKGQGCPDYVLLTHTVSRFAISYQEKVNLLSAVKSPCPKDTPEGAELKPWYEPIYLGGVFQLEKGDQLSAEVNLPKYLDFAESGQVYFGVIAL
Experiment: SPR (BIAcore T200, TNF-α immobilised on CM5, […] model)
Type: binding

Row | SMILES | Kd [µM]
1 | O=c1c(O)c(-c2ccc(O)c(O)c2)oc2cc(O)cc(O)c12 [H11, Quercetin] | 35
2 | Oc1ccc(CC2NCCc3cc(O)c(O)cc32)cc1 (centres unmarked) [S39, Higenamine] | 67

Reference: article PMC4837341, “Drug target identification using network analysis: Taking active components in Sini decoction as an example” (Scientific Reports, 2016)
